Residues, ends and D or L forms follow the SMILES beside them. No end group written: not given here.
Assays:
[1] = test system: NK3 receptor; experiment: Hypertension induced in guinea pigs by intravenous or intracerebroventricular senktide; assay type: in vivo; details: guinea pig; intravenous or intracerebroventricular injection
Procedure: (§1) The compounds according to the present invention were also evaluated in vivo on two animal models.

[2] = test system: NK3 receptor; experiment: Rotating behavior induced in gerbils by intrastriatal senktide; assay type: in vivo; details: gerbil; unilateral application in the striatum
Procedure: as §1

[3] = molecular target: T1, NK2 receptor of rat duodenum (Rattus norvegicus, UniProt P16610); experiment: Binding of [125I]His-NKA to NK2 receptors of rat duodenum; details: read-out: inhibition constant Ki, rat duodenum NK2 receptor
T1 construct: NK2 receptors of rat duodenum; from tissue; host or cells: rat duodenum
T1 sequence (P16610 1-390): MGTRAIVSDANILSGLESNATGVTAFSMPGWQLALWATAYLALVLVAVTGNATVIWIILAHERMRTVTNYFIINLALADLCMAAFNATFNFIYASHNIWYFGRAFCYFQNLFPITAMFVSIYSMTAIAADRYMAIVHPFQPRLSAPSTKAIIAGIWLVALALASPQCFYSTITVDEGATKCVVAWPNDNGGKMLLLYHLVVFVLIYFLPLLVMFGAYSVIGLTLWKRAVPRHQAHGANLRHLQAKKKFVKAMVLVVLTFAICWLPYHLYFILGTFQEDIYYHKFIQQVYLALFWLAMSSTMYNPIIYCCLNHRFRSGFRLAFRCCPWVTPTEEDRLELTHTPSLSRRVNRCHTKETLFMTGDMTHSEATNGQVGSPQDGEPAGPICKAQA
Procedure: (§2) The affinity of the compounds of formula (I') for the tachykinin receptors was evaluated in vitro by several biochemical assays using radioligands:
2) The binding of [^125 I]His-NKA to the NK2 receptors of rat duodenum or of guinea pig ileum.
(§3) The assays were carried out according to X. Emonds-Alt et al. (Eur. J. Pharmacol., 1993, 250, 403-413).

[4] = molecular target: T2, NK3 receptors of rat cerebral cortex (Rattus norvegicus, UniProt P16177); experiment: Binding of [125I]His[MePhe7]NKB to NK3 receptors of rat cerebral cortex; details: read-out: inhibition constant Ki, rat NK3 receptor
T2 construct: NK3 receptors of rat cerebral cortex; from tissue; host or cells: rat cerebral cortex
T2 sequence (P16177 1-452): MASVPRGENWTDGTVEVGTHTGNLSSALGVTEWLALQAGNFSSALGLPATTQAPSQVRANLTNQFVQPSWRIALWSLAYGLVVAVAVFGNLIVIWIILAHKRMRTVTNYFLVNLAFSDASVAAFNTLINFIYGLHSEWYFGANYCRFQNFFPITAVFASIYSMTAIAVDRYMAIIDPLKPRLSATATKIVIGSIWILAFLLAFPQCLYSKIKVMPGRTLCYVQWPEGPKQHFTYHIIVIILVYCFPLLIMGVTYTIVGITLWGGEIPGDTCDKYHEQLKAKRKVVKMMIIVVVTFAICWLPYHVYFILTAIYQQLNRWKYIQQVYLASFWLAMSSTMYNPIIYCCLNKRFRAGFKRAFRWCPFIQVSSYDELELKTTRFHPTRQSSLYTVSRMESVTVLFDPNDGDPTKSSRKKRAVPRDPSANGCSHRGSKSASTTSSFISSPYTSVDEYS
Procedure: as §2
(§4) 3) The binding of [^125 I]His[MePhe^7 ]NKB to the NK3 receptors of rat cerebral cortex, of guinea pig cerebral cortex and of gerbil cerebral cortex as well as to the cloned human NK3 receptors expressed by CHO cells (Buell et al., FEBS Letters, 1992, 299, 90-95).
as §3

[5] = molecular target: T3, human NK3 receptor (Homo sapiens, UniProt P29371); experiment: Binding of [125I]His[MePhe7]NKB to cloned human NK3 receptors expressed by CHO cells; details: for Ki: cloned human NK3 receptors expressed by CHO cells, read-out: inhibition constant Ki, human NK3 receptor; for selectivity / specificity for the human NK3 receptor: from Ki at human NK3 versus rat NK2/NK1 receptors
T3 construct: expressed in transfected cells; host or cells: CHO cells
T3 sequence (P29371 1-465): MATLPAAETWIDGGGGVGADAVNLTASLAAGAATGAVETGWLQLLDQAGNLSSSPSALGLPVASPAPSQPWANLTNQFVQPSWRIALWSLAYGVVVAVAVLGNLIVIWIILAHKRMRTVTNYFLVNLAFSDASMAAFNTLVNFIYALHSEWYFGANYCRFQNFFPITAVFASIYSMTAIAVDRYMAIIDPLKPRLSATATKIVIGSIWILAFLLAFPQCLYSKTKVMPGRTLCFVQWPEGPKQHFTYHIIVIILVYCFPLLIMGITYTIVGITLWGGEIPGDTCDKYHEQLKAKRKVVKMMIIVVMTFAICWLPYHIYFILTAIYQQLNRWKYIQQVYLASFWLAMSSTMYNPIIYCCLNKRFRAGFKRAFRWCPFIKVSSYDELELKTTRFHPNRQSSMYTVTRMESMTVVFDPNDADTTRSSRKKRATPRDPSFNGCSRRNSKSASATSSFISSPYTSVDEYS
Procedure: as §2, §4, §3

[6] = molecular target: rat NK3 receptor; details: Patent Application EP 512901; read-out: Ki, antagonizes the binding of eledoisin; cited from earlier work
[7] = test system: rat NK3 receptor; details: literature, J. Autonomic Pharmacol. 1993; cited from earlier work
[8] = molecular target: T4, NK1 receptors of rat cortex (Rattus norvegicus, UniProt P14600); experiment: Binding of [125I]BH-SP to NK1 receptors of rat cortex; details: read-out: inhibition constant Ki, rat cortex NK1 receptor
T4 construct: NK1 receptors of rat cortex; from tissue; host or cells: rat cortex
Procedure: as §2
1) The binding of [^125 I]BH-SP (substance P labeled with iodine 125 with the aid of the Bolton-Hunter reagent) to the NK1 receptors of rat cortex, of guinea pig ileum and of human lymphoblastic cells.
as §3

T4 sequence (P14600 whole entry): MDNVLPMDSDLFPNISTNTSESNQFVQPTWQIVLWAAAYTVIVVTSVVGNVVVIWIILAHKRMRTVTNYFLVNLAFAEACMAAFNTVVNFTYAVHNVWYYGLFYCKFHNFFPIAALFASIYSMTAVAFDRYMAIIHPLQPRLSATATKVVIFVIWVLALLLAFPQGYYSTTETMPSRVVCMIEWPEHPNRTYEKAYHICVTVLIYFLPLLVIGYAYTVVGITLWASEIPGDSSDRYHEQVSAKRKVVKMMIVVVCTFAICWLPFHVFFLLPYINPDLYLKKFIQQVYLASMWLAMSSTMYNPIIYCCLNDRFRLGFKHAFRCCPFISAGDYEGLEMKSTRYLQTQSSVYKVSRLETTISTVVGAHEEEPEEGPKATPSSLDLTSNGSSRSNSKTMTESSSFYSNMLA

Compound | Ki [3] | Ki [5] | selectivity / specificity for the human NK3 receptor [5] | further results
CSCC[C@H](NC(=O)[C@H](CC(C)C)NC(=O)CNC(=O)[C@H](Cc1ccccc1)N(C)C(=O)[C@H](Cc1ccccc1)NC(=O)[C@H](CC(=O)O)NC(=O)CCC(=O)O)C(N)=O [senktide] (HELM PEPTIDE1{[O=C(O)CCC(=O)[*:2]].D.F.[meF].G.L.M.[am]}$$$$V2.0) | – | – | – | hypertension induced by senktide [1]: induces a hypertension; contralateral rotations induced by senktide [2]: strong contralateral rotations
Cl.O=C1CCC(CCN2CCC(O)(c3ccccc3)CC2)(c2ccc(Cl)c(Cl)c2)CN1Cc1ccccc1 (stereo not drawn) [compound A, 5-[2-(4-hydroxy-4-phenylpiperid-1-yl)ethyl]-5-(3,4-dichlorophenyl)-1-benzylpiperid-2-one hydrochloride] | 0.0001 µM | 0.001 µM | not selective | Ki [4]: 0.1 µM; Ki [6]: 0.2 µM
[Trp^7, Ala^8 ]NKA: A peptide antagonist, weakly specific for rat NK3 receptor (HKTDSFWALM; ends and bridges not checked; UniProt P20366 98-107, looked up, variant V7W G8A) | – | – | – | specificity for rat NK3 receptor [7]: weakly specific
CN(CC(CCCN1CCC(O)(c2ccccc2)CC1)c1ccc(Cl)c(Cl)c1)C(=O)c1ccccc1.Cl (stereo not drawn) [Example 1, N-Methyl-N-[2-(3,4-dichlorophenyl)-5-(4-hydroxy-4-phenylpiperid-1-yl)pentyl]benzamide hydrochloride] | 0.5 µM | 0.005 µM | high specificity | Ki [8]: 0.5 µM
